Results reported in patent US6833389B2, “Use of thiamphenicol and derivatives thereof for the preparation of pharmaceutical compositions useful in the treatment of Chlamydia pneumoniae infections” (Zambon Group S.p.A., priority 2000, dated 2004).
Converted amounts (≈) assume the structure as drawn. Read-outs that look alike come from different tables or passages of the source. Each block holds one compound with its values, some of them ahead of it.

Key:
Chlamydia pneumoniae = test: MIC against Chlamydia pneumoniae strains in Hep-2 cell monolayers (inhibition of inclusion formation); type: cell-based
Method: Chlamydia pneumoniae TW183 and Chlamydia pneumoniae 2023 were obtained from American Type Culture Collection. The other strains (No. 9 isolated) were clinically isolated in the period 1997-1999. […] Monolayers of Hep-2 cells were prepared by seeding 2×10^5 cell/ml in EMEM with 10% fetal calf serum supplemented with L-glutammine, on 12 mm cover slips and left at 35° C., 5% CO2 for 24 to 48 hours for confluent growth. The growth medium was removed and Hep-2 monolayers were inoculated with the different strains at predetermined concentration calculated to give 3-5×10^2 inclusions for well. The monolayers, inoculated with Chlamydia pneumoniae were centrifuged at 1700 g for 60 minutes at 30° C. […] In positive control no antibiotic was added and negative control were considered wells not inoculated with Chlamydia pneumoniae. […] All tests were run in duplicate. The number of inclusions were counted and the MIC (the lowest concentration at which complete inhibition of inclusion formation was observed) was determined.

Chlamydia trachomatis = conditions: literature (Ridgeway et al. 1979); markedly lower than erythromycin; cited from earlier work
[1] = Chlamydia pneumoniae, 72 h, MIC range over the 11 Chlamydia pneumoniae strains, Hep-2 cells, 3 days, read-out: MIC
[2] = strain 1 (clinical isolate), test I
[3] = strain 1 (clinical isolate), test II
[4] = strain 2 (clinical isolate), test I
[5] = strain 2 (clinical isolate), test II
[6] = strain 3 (clinical isolate), test I
[7] = strain 3 (clinical isolate), test II
[8] = strain 4 (clinical isolate), test I
[9] = strain 4 (clinical isolate), test II
[10] = strain 5 (clinical isolate), test I
[11] = strain 5 (clinical isolate), test II
[12] = strain 6 (clinical isolate), test I
[13] = strain 6 (clinical isolate), test II
[14] = strain 7 (clinical isolate), test I
[15] = strain 7 (clinical isolate), test II
[16] = strain 8 (clinical isolate), test I
[17] = strain 8 (clinical isolate), test II
[18] = strain 9 (clinical isolate), test I
[19] = strain 9 (clinical isolate), test II

MIC (Chlamydia pneumoniae; [1]): 0.06 to 0.25 µg/mL (≈ 0.135 to 0.563 µM)
MIC (Chlamydia pneumoniae; Chlamydia pneumoniae, ATCC2023, strain ATCC 2023, test I, read-out: MIC): 0.06 µg/mL (≈ 0.135 µM)
MIC (Chlamydia pneumoniae; Chlamydia pneumoniae, ATCC2023, strain ATCC 2023, test II, read-out: MIC): 0.06 µg/mL (≈ 0.135 µM)
MIC (Chlamydia pneumoniae; Chlamydia pneumoniae, strain 1 (clinical isolate), test I, read-out: MIC): 0.06 µg/mL (≈ 0.135 µM)
MIC (Chlamydia pneumoniae; Chlamydia pneumoniae, strain 1 (clinical isolate), test II, read-out: MIC): 0.125 µg/mL (≈ 0.281 µM)
MIC (Chlamydia pneumoniae; Chlamydia pneumoniae, strain 2 (clinical isolate), test I, read-out: MIC): 0.125 µg/mL (≈ 0.281 µM)
MIC (Chlamydia pneumoniae; Chlamydia pneumoniae, strain 2 (clinical isolate), test II, read-out: MIC): 0.125 µg/mL (≈ 0.281 µM)
MIC (Chlamydia pneumoniae; Chlamydia pneumoniae, strain 3 (clinical isolate), test I, read-out: MIC): 0.125 µg/mL (≈ 0.281 µM)
MIC (Chlamydia pneumoniae; Chlamydia pneumoniae, strain 3 (clinical isolate), test II, read-out: MIC): 0.125 µg/mL (≈ 0.281 µM)
MIC (Chlamydia pneumoniae; Chlamydia pneumoniae, strain 4 (clinical isolate), test I, read-out: MIC): 0.06 µg/mL (≈ 0.135 µM)
MIC (Chlamydia pneumoniae; Chlamydia pneumoniae, strain 4 (clinical isolate), test II, read-out: MIC): 0.06 µg/mL (≈ 0.135 µM)
MIC (Chlamydia pneumoniae; Chlamydia pneumoniae, strain 5 (clinical isolate), test I, read-out: MIC): 0.125 µg/mL (≈ 0.281 µM)
MIC (Chlamydia pneumoniae; Chlamydia pneumoniae, strain 5 (clinical isolate), test II, read-out: MIC): 0.06 µg/mL (≈ 0.135 µM)
MIC (Chlamydia pneumoniae; Chlamydia pneumoniae, strain 6 (clinical isolate), test I, read-out: MIC): 0.06 µg/mL (≈ 0.135 µM)
MIC (Chlamydia pneumoniae; Chlamydia pneumoniae, strain 6 (clinical isolate), test II, read-out: MIC): 0.06 µg/mL (≈ 0.135 µM)
MIC (Chlamydia pneumoniae; Chlamydia pneumoniae, strain 7 (clinical isolate), test I, read-out: MIC): 0.06 µg/mL (≈ 0.135 µM)
MIC (Chlamydia pneumoniae; Chlamydia pneumoniae, strain 7 (clinical isolate), test II, read-out: MIC): 0.06 µg/mL (≈ 0.135 µM)
MIC (Chlamydia pneumoniae; Chlamydia pneumoniae, strain 8 (clinical isolate), test I, read-out: MIC): 0.25 µg/mL (≈ 0.563 µM)
MIC (Chlamydia pneumoniae; Chlamydia pneumoniae, strain 8 (clinical isolate), test II, read-out: MIC): 0.06 µg/mL (≈ 0.135 µM)
MIC (Chlamydia pneumoniae; Chlamydia pneumoniae, strain 9 (clinical isolate), test I, read-out: MIC): 0.25 µg/mL (≈ 0.563 µM)
MIC (Chlamydia pneumoniae; Chlamydia pneumoniae, strain 9 (clinical isolate), test II, read-out: MIC): 0.25 µg/mL (≈ 0.563 µM)
MIC (Chlamydia pneumoniae; Chlamydia pneumoniae, strain TW 183, test I, read-out: MIC): 0.125 µg/mL (≈ 0.281 µM)
MIC (Chlamydia pneumoniae; Chlamydia pneumoniae, strain TW 183, test II, read-out: MIC): 0.25 µg/mL (≈ 0.563 µM)
Structure (SMILES): C[C@H]1c2cccc(O)c2C(=O)C2=C(O)[C@]3(O)C(=O)C(C(N)=O)=C(O)[C@@H](N(C)C)[C@@H]3[C@@H](O)[C@@H]21 [Doxycycline, doxycycline]

MIC (Chlamydia pneumoniae; [2]): 0.03 µg/mL
MIC (Chlamydia pneumoniae; [3]): 0.06 µg/mL
MIC (Chlamydia pneumoniae; [4]): 0.03 µg/mL
MIC (Chlamydia pneumoniae; [5]): 0.03 µg/mL
MIC (Chlamydia pneumoniae; [6]): 0.125 µg/mL
MIC (Chlamydia pneumoniae; [7]): 0.125 µg/mL
MIC (Chlamydia pneumoniae; [8]): 0.25 µg/mL
MIC (Chlamydia pneumoniae; [9]): 0.06 µg/mL
MIC (Chlamydia pneumoniae; [10]): 0.125 µg/mL
MIC (Chlamydia pneumoniae; [11]): 0.125 µg/mL
MIC (Chlamydia pneumoniae; [12]): 0.03 µg/mL
MIC (Chlamydia pneumoniae; [13]): 0.03 µg/mL
MIC (Chlamydia pneumoniae; [14]): 0.03 µg/mL
MIC (Chlamydia pneumoniae; [15]): 0.03 µg/mL
MIC (Chlamydia pneumoniae; [16]): 0.125 µg/mL
MIC (Chlamydia pneumoniae; [17]): 0.03 µg/mL
MIC (Chlamydia pneumoniae; [18]): 0.125 µg/mL
MIC (Chlamydia pneumoniae; [19]): 0.125 µg/mL
MIC (Chlamydia pneumoniae; strain ATCC 2023, test I): 0.03 µg/mL
MIC (Chlamydia pneumoniae; strain ATCC 2023, test II): 0.03 µg/mL
MIC (Chlamydia pneumoniae; strain TW 183, test I): 0.06 µg/mL
MIC (Chlamydia pneumoniae; strain TW 183, test II): 0.03 µg/mL
Structure (SMILES): CC(=O)N[C@@H](CS)C(=O)O.CS(=O)(=O)c1ccc([C@@H](O)[C@@H](COC(=O)CN)NC(=O)C(Cl)Cl)cc1 [TGA, thiamphenicol glycinate acetylcysteinate]

Structure (SMILES): CN(C)[C@@H]1C(O)=C(C(N)=O)C(=O)[C@@]2(O)C(O)=C3C(=O)c4c(O)cccc4[C@@](C)(O)[C@H]3C[C@@H]12.Cl [Tetracycline, tetracycline hydrochloride]
MIC (Chlamydia pneumoniae; MIC range over the 11 Chlamydia pneumoniae strains, Hep-2 cells, 3 days): 0.06 to 0.5 µg/mL
MIC (Chlamydia pneumoniae; [2]): 0.06 µg/mL
MIC (Chlamydia pneumoniae; [3]): 0.06 µg/mL
MIC (Chlamydia pneumoniae; [4]): 0.06 µg/mL
MIC (Chlamydia pneumoniae; [5]): 0.06 µg/mL
MIC (Chlamydia pneumoniae; [6]): 0.125 µg/mL
MIC (Chlamydia pneumoniae; [7]): 0.125 µg/mL
MIC (Chlamydia pneumoniae; [8]): 0.125 µg/mL
MIC (Chlamydia pneumoniae; [9]): 0.5 µg/mL
MIC (Chlamydia pneumoniae; [10]): 0.125 µg/mL
MIC (Chlamydia pneumoniae; [11]): 0.25 µg/mL
MIC (Chlamydia pneumoniae; [12]): 0.06 µg/mL
MIC (Chlamydia pneumoniae; [13]): 0.5 µg/mL
MIC (Chlamydia pneumoniae; [14]): 0.125 µg/mL
MIC (Chlamydia pneumoniae; [15]): 0.125 µg/mL
MIC (Chlamydia pneumoniae; [16]): 0.06 µg/mL
MIC (Chlamydia pneumoniae; [17]): 0.06 µg/mL
MIC (Chlamydia pneumoniae; [18]): 0.06 µg/mL
MIC (Chlamydia pneumoniae; [19]): 0.5 µg/mL
MIC (Chlamydia pneumoniae; strain ATCC 2023, test I): 0.06 µg/mL
MIC (Chlamydia pneumoniae; strain ATCC 2023, test II): 0.125 µg/mL
MIC (Chlamydia pneumoniae; strain TW 183, test I): 0.06 µg/mL
MIC (Chlamydia pneumoniae; strain TW 183, test II): 0.06 µg/mL

MIC (Chlamydia pneumoniae; [1]): 0.03 to 0.25 µg/mL (≈ 0.0842 to 0.702 µM)
Structure (SMILES): CS(=O)(=O)c1ccc([C@@H](O)[C@@H](CO)NC(=O)C(Cl)Cl)cc1 [thiamphenicol]
activity against Chlamydia trachomatis (Chlamydia trachomatis): active
